Experiments:
[1] = Inhibition of HIV1 reverse transcriptase M184V mutant-mediated viral DNA synthesis in human HOS-313 cells expressing HSV thymidine kinase assessed as luciferase activity treated 3 hrs before infection measured after 48 hrs by luminescence assay
[2] = Inhibition of HIV1 reverse transcriptase M184V mutant-mediated viral DNA synthesis in human HOS cells assessed as luciferase activity treated 3 hrs before infection measured after 48 hrs by luminescence assay
[3] = Inhibition of HIV1 wild type reverse transcriptase-mediated viral DNA synthesis in human HOS cells assessed as luciferase activity treated 3 hrs before infection measured after 48 hrs by luminescence assay
[4] = Inhibition of HIV1 wild type reverse transcriptase-mediated viral DNA synthesis in human HOS-313 cells expressing HSV thymidine kinase assessed as luciferase activity treated 3 hrs before infection measured after 48 hrs by luminescence assay

SMILES | IC50 [1] [nM] | IC50 [2] [nM] | IC50 [3] [nM] | IC50 [4] [nM]
Cc1cn([C@@H]2C[C@H](CO)[C@@H](O)C2)c(=O)[nH]c1=O | 190 | 1800 | 3200 | 
Cc1cccc2c1OP(=O)(OC[C@H]1C[C@@H](n3cc(C)c(=O)[nH]c3=O)C[C@@H]1O)OC2 (stereo not given in full) |  |  | 380 | 120

Source: BindingDB's records for doi:10.1021/jm801176e (Nci-Frederick, 2009)
